In ChEMBL document CHEMBL1143789, “Synthesis and biological study of medicinally important Mannich bases derived from 4-(dimethylamino)-1,4,4a,5,5a,6,11,12a-octahydro-3,6,10,12,12a pentahydroxy naphthacene carboxamide” (Bioorg Med Chem Lett, 2007):

Assays:
[1] = system: Pasteurella multocida; assay: Antibacterial activity against Pasteurella multocida at 20 mg/ml by paper disc method; type: functional; conditions: read-out: IZ
[2] = system: Mus musculus; assay: Toxicity in mouse at 1600 mg/kg, po after 72 hrs; type: organism-based; parameters: dose 1600 mg/kg, route oral; conditions: in vivo
[3] = system: Mus musculus; assay: Toxicity in mouse at 1000 mg/kg, ip after 72 hrs; type: organism-based; parameters: dose 1000 mg/kg, route intraperitoneal; conditions: in vivo
[4] = system: Pasteurella multocida; assay: Antibacterial activity against Pasteurella multocida at 30 mg/ml by paper disc method; type: functional; conditions: read-out: IZ
[5] = system: Salmonella enteritidis; assay: Antibacterial activity against Salmonella enteritidis at 40 mg/ml by paper disc method; type: functional, Salmonella enterica subsp. enterica serovar Enteritidis; conditions: Salmonella enterica; read-out: IZ
[6] = system: Pasteurella multocida; assay: Antibacterial activity against Pasteurella multocida at40 mg/ml by paper disc method; type: functional
[7] = system: Salmonella enteritidis; assay: Antibacterial activity against Salmonella enteritidis at 30 mg/ml by paper disc method; type: functional, Salmonella enterica subsp. enterica serovar Enteritidis; conditions: Salmonella enterica; read-out: IZ
[8] = system: Salmonella enteritidis; assay: Antibacterial activity against Salmonella enteritidis at 20 mg/ml by paper disc method; type: functional, Salmonella enterica subsp. enterica serovar Enteritidis; conditions: Salmonella enterica; read-out: IZ

Row | Compound | zone of inhibition at 20000 µg/mL [1] [mm] | Activity [2] | Activity [3] | zone of inhibition at 30000 µg/mL [4] [mm] | zone of inhibition at 40000 µg/mL [5] [mm] | inhibition zone (IZ) [6] [mm] | zone of inhibition at 30000 µg/mL [7] [mm] | zone of inhibition at 20000 µg/mL [8] [mm]
1 | CN(C)C1C(O)=C(C(=O)NCNc2ccc(S(=O)(=O)Nc3ncccn3)cc2)C(=O)C2(O)C(O)=C3C(=O)c4c(O)cccc4C(C)(O)C3CC12 (configuration not stated) | 20.4 | Non-toxic | Toxic | 20.8 | 21.2 | 21.86 | 20.9 | 20
2 | CN(C)C1C(O)=C(C(=O)NCNc2ccc(S(N)(=O)=O)cc2)C(=O)C2(O)C(O)=C3C(=O)c4c(O)cccc4C(C)(O)C3CC12 (configuration not stated) | 28.4 | Non-toxic | Toxic | 28.6 | 16 | 29.08 | 15 | 14.7
3 | COc1ncnc(NS(=O)(=O)c2ccc(NCNC(=O)C3=C(O)C(N(C)C)C4CC5C(=C(O)C4(O)C3=O)C(=O)c3c(O)cccc3C5(C)O)cc2)c1OC (configuration not stated) | 22.1 | Non-toxic | Toxic | 23.3 | 15.5 | 24.4 | 15.2 | 15
4 | CC(=O)NS(=O)(=O)c1ccc(NCNC(=O)C2=C(O)C(N(C)C)C3CC4C(=C(O)C3(O)C2=O)C(=O)c2c(O)cccc2C4(C)O)cc1 (configuration not stated) | 26.2 | Non-toxic | Toxic | 27.3 | – | 28.3 | – | –
5 | Cc1cc(NS(=O)(=O)c2ccc(NCNC(=O)C3=C(O)C(N(C)C)C4CC5C(=C(O)C4(O)C3=O)C(=O)c3c(O)cccc3C5(C)O)cc2)no1 (configuration not stated) | 21.3 | Non-toxic | Toxic | 22 | 22.1 | 23.2 | 21.2 | 21.1
6 | CN(C)C1C(O)=C(C(=O)NCNc2ccc(S(=O)(=O)NC(=N)N)cc2)C(=O)C2(O)C(O)=C3C(=O)c4c(O)cccc4C(C)(O)C3CC12 (configuration not stated) | 24.1 | Non-toxic | Toxic | 24.3 | 14.2 | 25.2 | 13.9 | 13.2
7 | CC(=O)NS(=O)(=O)c1ccc(N)cc1 [SULFACETAMIDE] | 20.5 | – | – | 21.2 | – | 22.15 | – | –
8 | Nc1ccc(S(=O)(=O)Nc2ncccn2)cc1 [SULFADIAZINE] | 28 | – | – | 30 | 20 | 39 | 15 | 10
9 | N=C(N)NS(=O)(=O)c1ccc(N)cc1 [SULFAGUANIDINE] | 20 | – | – | 25 | 18 | 25 | 15 | 10
10 | Cc1cc(NS(=O)(=O)c2ccc(N)cc2)no1 [SULFAMETHOXAZOLE] | 24 | – | – | 26 | 18 | 28 | 15 | 15
11 | Nc1ccc(S(N)(=O)=O)cc1 [SULFANILAMIDE] | 22 | – | – | 25 | 16 | 28 | 12 | 10
